Measured values: patent US20120232070A1, “Use of Indole Derivatives as Nurr-1 Activators for the Application Thereof as a Medicament for the Treatment of Parkinson's Disease” (Laboratoires Fournier SA, priority 2009, published 2012)

Columns and labels:
[1] = biological target: hNurr1_RXRγFL (NURR1/RXRγ heterodimer) (Homo sapiens, UniProt P43354+P48443); test: Transactivation assay in Cos-7 cells, NURR-1-Gal4 / RXRγ, luciferase reporter; type: cell-based; settings: for Emax: COS-7, read-out: hNurr1_RXRγFL Eff (%), efficacy in % relative to the reference XCT0135908 at 2·10^−5 M (=100%); for EC50: Cos-7 cells, overnight incubation
Experimental: (§1) First, the capacity of the compounds according to the invention for acting as an activator of the heterodimers formed by the NURR-1 nuclear receptor and the RXR nuclear receptors was measured by an in vitro assay.
(§2) A transactivation assay was used as a primary screening assay. Cos-7 cells were co-transfected with a plasmid expressing a chimera of the human receptor NURR-1-Gal4, a plasmid expressing the human receptor RXR (RXRα or RXRγ receptor) and a reporter plasmid 5Gal4pGL3-TK-Luc. The transfections were performed by means of a chemical agent (Jet PEI).
(§3) The transfected cells were distributed in 384-well plates and left resting for 24 hours.
(§4) After 24 hours, the culture medium was changed. The products according to the invention were added (final concentration between 10^−4 and 3·10^−10 M) to the culture medium. After overnight incubation, luciferase expression was measured after addition of “SteadyGlo” according to the manufacturer's instructions (Promega).
(§5) 4-[[6-Methyl-2-phenyl-5-(2-prop enyl)-4-pyrimidinyl]amino]-benzoic acid (called XCT0135908, which was described in the article by Wallen-Mackenzie et al. published in Genes & Development 17, pages 3036-3047) at 2·10^−5 M (RXR agonist) was used as reference.
(§6) The levels of induction (designated by “efficiency”) were calculated relative to the baseline activity of each heterodimer. The results were expressed as a percentage of the level of induction relative to the level of induction obtained with the reference (the level of induction of the reference is arbitrarily taken to be 100%).

[2] = biological target: hNurr1_RXRαFL (NURR1/RXRα heterodimer) (Homo sapiens, UniProt P19793+P43354); test: Transactivation assay in Cos-7 cells, NURR-1-Gal4 / RXRα, luciferase reporter; type: cell-based; settings: for Emax: COS-7, read-out: hNurr1_RXRαFL Eff (%), efficacy in % relative to the reference XCT0135908 at 2·10^−5 M (=100%); for EC50: Cos-7 cells, overnight incubation
Experimental: as §1, §2, §3, §4, §5, §6

hNurr1_RXRγFL (NURR1/RXRγ heterodimer), sequence (P43354 328-598): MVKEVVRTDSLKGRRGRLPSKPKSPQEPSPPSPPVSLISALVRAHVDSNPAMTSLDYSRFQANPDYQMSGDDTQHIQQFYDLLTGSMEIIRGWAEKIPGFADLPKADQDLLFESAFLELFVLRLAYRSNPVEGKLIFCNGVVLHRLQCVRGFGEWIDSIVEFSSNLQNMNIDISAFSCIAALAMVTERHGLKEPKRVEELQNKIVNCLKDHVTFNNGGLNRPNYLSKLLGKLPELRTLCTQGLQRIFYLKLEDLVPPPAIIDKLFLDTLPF
hNurr1_RXRγFL (NURR1/RXRγ heterodimer), sequence (P48443 whole entry, the tested form may be a part): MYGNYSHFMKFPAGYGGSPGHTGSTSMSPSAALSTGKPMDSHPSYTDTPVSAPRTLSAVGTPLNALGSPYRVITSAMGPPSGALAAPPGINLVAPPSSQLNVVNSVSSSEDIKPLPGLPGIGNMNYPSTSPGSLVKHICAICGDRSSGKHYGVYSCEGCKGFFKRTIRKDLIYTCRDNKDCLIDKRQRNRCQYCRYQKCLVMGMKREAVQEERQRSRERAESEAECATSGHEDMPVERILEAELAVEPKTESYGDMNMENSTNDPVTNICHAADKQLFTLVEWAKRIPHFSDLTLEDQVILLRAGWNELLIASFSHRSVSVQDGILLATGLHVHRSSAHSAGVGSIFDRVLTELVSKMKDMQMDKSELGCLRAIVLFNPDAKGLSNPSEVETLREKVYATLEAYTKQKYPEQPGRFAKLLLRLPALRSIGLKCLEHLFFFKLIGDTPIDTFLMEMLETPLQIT
hNurr1_RXRαFL (NURR1/RXRα heterodimer), sequence (P19793 whole entry, the tested form may be a part): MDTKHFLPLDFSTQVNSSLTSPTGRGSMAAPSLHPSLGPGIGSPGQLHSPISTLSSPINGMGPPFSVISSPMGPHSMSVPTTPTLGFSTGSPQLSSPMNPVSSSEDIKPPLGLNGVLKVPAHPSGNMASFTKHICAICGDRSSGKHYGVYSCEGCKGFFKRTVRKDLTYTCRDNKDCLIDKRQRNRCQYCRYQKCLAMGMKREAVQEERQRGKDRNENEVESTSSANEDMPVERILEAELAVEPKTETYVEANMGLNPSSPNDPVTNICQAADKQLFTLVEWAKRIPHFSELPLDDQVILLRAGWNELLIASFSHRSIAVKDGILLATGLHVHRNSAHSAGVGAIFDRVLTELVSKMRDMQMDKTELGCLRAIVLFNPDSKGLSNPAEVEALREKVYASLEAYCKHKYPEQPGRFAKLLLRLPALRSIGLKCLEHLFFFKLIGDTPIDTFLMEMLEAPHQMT
hNurr1_RXRαFL (NURR1/RXRα heterodimer), sequence (P43354 328-598): as the sequence (P43354 328-598) above

| SMILES | Emax [1] [%] | EC50 [1] [nM] | Emax [2] [%] | EC50 [2] [nM] |
| --- | --- | --- | --- | --- |
| O=C(O)c1ccc(Cc2cc3cc(C(F)(F)F)ccc3n2S(=O)(=O)c2ccc(-c3ccccc3)s2)cc1 [Example 14, 4-[[1-[(5-phenyl-2-thienyl)sulfonyl]-5-(trifluoromethyl)-1H-indol-2-yl]methyl]benzoic acid] | 30 | 778 | 69 | 396 |
| O=C(O)c1ccc(Cc2cc3cc(C(F)(F)F)ccc3n2S(=O)(=O)c2ccc(F)c(Cl)c2)cc1 [Example 15, 4-[[1-[(3-chloro-4-fluorophenyl)sulfonyl]-5-(trifluoromethyl)-1H-indol-2-yl]methyl]benzoic acid] | 54 | 746 | 66 | 372 |
| O=C(O)c1ccc(Cc2cc3cc(C(F)(F)F)ccc3n2S(=O)(=O)c2ccsc2)cc1 [Example 16, 4-[[1-(3-thienylsulfonyl)-5-(trifluoromethyl)-1H-indol-2-yl]methyl]benzoic acid] | 45 | 628 | 66 | 617 |
| Cn1ccc(-c2cccc(S(=O)(=O)n3c(Cc4ccc(C(=O)O)cc4)cc4cc(C(F)(F)F)ccc43)c2)n1 [Example 18, 4-[[1-[[3-(1-methyl-1H-pyrazol-3-yl)phenyl]sulfonyl]-5-(trifluoromethyl)-1H-indol-2-yl]methyl]benzoic acid] | 34 | 668 | 60 | 407 |
| Cn1nccc1-c1cccc(S(=O)(=O)n2c(Cc3ccc(C(=O)O)cc3)cc3cc(C(F)(F)F)ccc32)c1 [Example 20, 4-[[1-[[3-(1-methyl-1H-pyrazol-5-yl)phenyl]sulfonyl]-5-(trifluoromethyl)-1H-indol-2-yl]methyl]benzoic acid] | 44 | 617 | 54 | 295 |
| CC(C)(C)c1ccc(S(=O)(=O)n2c(Cc3ccc(C(=O)O)cc3)cc3cc(C(F)(F)F)ccc32)cc1 [Example 21, 4-[[1-[[4-(1,1-dimethylethyl)phenyl]sulfonyl]-5-(trifluoromethyl)-1H-indol-2-yl]methyl]benzoic acid] | 35 | 240 | 46 | 121 |
| O=C(O)c1ccc(Cc2cc3cc(C(F)(F)F)ccc3n2S(=O)(=O)c2ccc3c(c2)OCCO3)cc1 [Example 22, 4-[[1-[(2,3-dihydro-1,4-benzodioxin-6-yl)sulfonyl]-5-(trifluoromethyl)-1H-indol-2-yl]methyl]benzoic acid] | 43 | 346 | 45 | 207 |
| O=C(O)c1ccc(Cc2cc3cc(C(F)(F)F)ccc3n2S(=O)(=O)c2ccc3ccccc3c2)cc1 [Example 25, 4-[[1-(2-naphthalenylsulfonyl)-5-(trifluoromethyl)-1H-indol-2-yl]methyl]benzoic acid] | 33 | 864 | 47 | 496 |
| O=C(O)c1ccc(Cc2cc3cc(Cl)ccc3n2S(=O)(=O)c2cccc(C(F)(F)F)c2)cc1 [Example 28, 4-[[5-chloro-1-[[3-(trifluoromethyl)phenyl]sulfonyl]-1H-indol-2-yl]-methyl]benzoic acid] | 67 | 443 | 78 | 332 |
| COC(=O)c1ccc(Cc2cc3cc(Cl)ccc3n2S(=O)(=O)c2ccc(C(C)C)cc2)cc1 [Example 40, 4-[[5-chloro-1-[[4-(1-methylethyl)phenyl]sulfonyl]-1H-indol-2-yl]methyl]benzoic acid, methyl ester] | 75 | 2110 | 96 | 560 |
| CC(C)c1ccc(S(=O)(=O)n2c(Cc3ccc(C(=O)O)cc3)cc3cc(C(F)(F)F)ccc32)cc1 [Example 43, 4-[[1-[[4-(1-methylethyl)phenyl]sulfonyl]-5-(trifluoromethyl)-1H-indol-2-yl]methyl]benzoic acid] | 79 | 616 | 73 | 291 |
| CN1CCOc2ccc(S(=O)(=O)n3c(Cc4ccc(C(=O)O)cc4)cc4cc(C(F)(F)F)ccc43)cc21 [Example 45, 4-[[1-[(3,4-dihydro-4-methyl-2H-1,4-benzoxazin-6-yl)sulfonyl]-5-(trifluoromethyl)-1H-indol-2-yl]methyl]benzoic acid] | 50 | 201 | 70 | 97 |
| CC(C)c1cccc(S(=O)(=O)n2c(Cc3ccc(C(=O)O)cc3)cc3cc(Cl)ccc32)c1 [Example 51, 4-[[5-chloro-1-[[3-(1-methylethyl)phenyl]sulfonyl]-1H-indol-2-yl]-methyl]benzoic acid] | 69 | 1130 | 74 | 801 |
| O=C(O)c1ccc(Cc2cc3cc(C(F)(F)F)ccc3n2S(=O)(=O)c2cccc(C3CC3)c2)cc1 [Example 59, 4-[1-(3-cyclopropyl-benzenesulfonyl)-5-trifluoromethyl-1H-indol-2-ylmethyl]-benzoic acid] | 31 | 297 | 70 | 274 |
| CC(C)(C)c1cccc(S(=O)(=O)n2c(Cc3ccc(C(=O)O)cn3)cc3cc(C(F)(F)F)ccc32)c1 [Example 66] | 79 | 110 | 80 | 71 |
| CC(C)c1ccc(S(=O)(=O)n2c(Cc3ccc(C(=O)O)c(O)c3)cc3cc(C(F)(F)F)ccc32)cc1 [Example 68, 2-hydroxy-4-[[1-[[4-(1-methylethyl)phenyl]sulfonyl]-5-(trifluoromethyl)-1H-indol-2-yl]methyl]-benzoic acid] | 43 | 553 | 51 | 343 |
| CC(C)(C)c1cccc(S(=O)(=O)n2c(Cc3ccc(C(=O)O)o3)cc3cc(C(F)(F)F)ccc32)c1 [Example 69, 5-[[1-[[3-(1,1-dimethylethyl)-phenyl]sulfonyl]-5-trifluoromethyl-1H-indol-2-yl]methyl]-furan-2-carboxylic acid] | 72 | 15 | 79 | 9 |
| CC(C)(C)c1cccc(S(=O)(=O)n2c(Cc3csc(C(=O)O)c3)cc3cc(C(F)(F)F)ccc32)c1 [Example 70, 4-[[1-[[3-(1,1-dimethylethyl)-phenyl]sulfonyl]-5-trifluoromethyl-1H-indol-2-yl]methyl]-thiophene-2-carboxylic acid] | 91 | 8 | 94 | 5 |
| CC(C)c1ccc(S(=O)(=O)n2c(Cc3ccc(C(=O)O)s3)cc3cc(C(F)(F)F)ccc32)cc1 [Example 71, 5-[[1-[[4-(1-methylethyl)-phenyl]sulfonyl]-5-trifluoromethyl-1H-indol-2-yl]methyl]-thiophene-2-carboxylic acid] | 82 | 95 | 61 | 47 |
| CN1CCOc2ccc(S(=O)(=O)n3c(Cc4ccc(C(=O)O)s4)cc4cc(C(F)(F)F)ccc43)cc21 [Example 73, 5-[[1-[[4-methyl-3,4-dihydro-2H-benzo[1,4]oxazin-6-yl]-sulfonyl]-5-trifluoromethyl-1H-indol-2-yl]methyl]-thiophene-2-carboxylic acid] | 89 | 66 | 94 | 37 |
